The values below come from patent US20250084056A1, “SUBSTITUTED OXOISOINDOLINYL PIPERIDINE-2,6-DIONE COMPOUNDS” (BRISTOL-MYERS SQUIBB COMPANY, priority 2023, published 2025).

pIC50: −log10 of the molar value.

Common to all, as to format: cell-based
Assay [1] has as its target GSPT1 (Homo sapiens, UniProt P15170+Q96SW2). In words: GSPT1 Cellular Degradation Assay (DF15-GSPT1-ePL). Set-up: expressed in transfected cells. To be noted: DF15-GSPT1-ePL cells, 20 hours. In outline: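 Human DF15 cells co-expressing a GSPT1–ePL fusion were treated with compound in RPMI 1640/10% FBS for 20 h at 37 °C. GSPT1 level was read by enzyme-fragment-complementation luminescence after 60 min with detection reagent. The reference degrader at […] defined 75% response; DC50 and Dmax were reported.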

The target of assay [2] is Cyclin E1 (Homo sapiens, UniProt P24864+Q96SW2). Description: Cyclin E1 Cellular Degradation Assay (MSD). The arrangement: endogenous in cells; host or cells: OVCAR3. The conditions noted are these: for DC50 / Dmax: Cyclin E1 cellular degradation; for Dmax: maximum degradation; for Ratio of GSPT1 DC50/Cyclin E1 DC50: selectivity for degradation of Cyclin E1 over GSPT1. The method, boiled down:
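OVCAR3 cells treated with compound for 24 h at 37 °C, lysed, and cyclin E1 measured by MSD sandwich immunoassay (rabbit capture, mouse detection anti-CCNE1). Reference degrader at […] defined 110% response; DC50 and Dmax derived from response.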

In assay [3] the test system is Phospho-Rb (Ser807/811). Description: Phospho-Retinoblastoma (pRB) Cellular Assay. The conditions noted are these: Homo sapiens, OVCAR-3, NIH OVCAR3 cells, 24 hours; for pIC50: concentration giving 50% response; for Emax: maximum response, reference compound at 10 μM = 100%, read-out: pRB Ymax. The method, boiled down:
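OVCAR3 cells seeded overnight, then dosed with serial dilutions for 24 h at 37° C. Lysed with kit mix plus phosphatase inhibitor, ≥4 h at room temperature, read on EnVision; 100% response set by reference compound at 10 μM, giving IC50 and Ymax.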

Chain of Cyclin E1 (P24864 whole entry): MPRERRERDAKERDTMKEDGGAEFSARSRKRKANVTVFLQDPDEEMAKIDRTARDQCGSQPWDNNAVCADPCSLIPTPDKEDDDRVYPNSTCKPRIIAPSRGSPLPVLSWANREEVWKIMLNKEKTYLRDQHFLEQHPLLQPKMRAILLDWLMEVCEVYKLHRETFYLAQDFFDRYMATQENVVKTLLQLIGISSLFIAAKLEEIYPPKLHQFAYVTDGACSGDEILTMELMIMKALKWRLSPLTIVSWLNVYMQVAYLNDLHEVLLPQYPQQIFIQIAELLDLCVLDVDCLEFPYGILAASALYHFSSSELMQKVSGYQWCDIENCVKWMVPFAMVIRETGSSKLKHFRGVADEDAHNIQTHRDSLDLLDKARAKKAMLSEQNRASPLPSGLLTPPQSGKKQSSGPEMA
Chain of Cyclin E1 (Q96SW2 whole entry): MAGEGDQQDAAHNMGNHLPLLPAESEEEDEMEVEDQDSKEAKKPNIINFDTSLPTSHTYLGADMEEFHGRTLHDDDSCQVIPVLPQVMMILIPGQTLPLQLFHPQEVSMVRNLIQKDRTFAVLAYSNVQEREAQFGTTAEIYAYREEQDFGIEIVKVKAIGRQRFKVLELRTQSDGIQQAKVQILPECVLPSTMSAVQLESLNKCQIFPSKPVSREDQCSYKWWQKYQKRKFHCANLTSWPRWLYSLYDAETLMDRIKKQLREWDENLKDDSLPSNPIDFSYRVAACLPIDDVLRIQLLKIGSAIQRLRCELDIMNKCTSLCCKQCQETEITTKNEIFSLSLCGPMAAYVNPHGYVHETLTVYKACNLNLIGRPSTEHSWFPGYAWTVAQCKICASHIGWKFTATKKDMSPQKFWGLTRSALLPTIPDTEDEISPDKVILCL
Chain of Cyclin E1 (Q16531 whole entry partner): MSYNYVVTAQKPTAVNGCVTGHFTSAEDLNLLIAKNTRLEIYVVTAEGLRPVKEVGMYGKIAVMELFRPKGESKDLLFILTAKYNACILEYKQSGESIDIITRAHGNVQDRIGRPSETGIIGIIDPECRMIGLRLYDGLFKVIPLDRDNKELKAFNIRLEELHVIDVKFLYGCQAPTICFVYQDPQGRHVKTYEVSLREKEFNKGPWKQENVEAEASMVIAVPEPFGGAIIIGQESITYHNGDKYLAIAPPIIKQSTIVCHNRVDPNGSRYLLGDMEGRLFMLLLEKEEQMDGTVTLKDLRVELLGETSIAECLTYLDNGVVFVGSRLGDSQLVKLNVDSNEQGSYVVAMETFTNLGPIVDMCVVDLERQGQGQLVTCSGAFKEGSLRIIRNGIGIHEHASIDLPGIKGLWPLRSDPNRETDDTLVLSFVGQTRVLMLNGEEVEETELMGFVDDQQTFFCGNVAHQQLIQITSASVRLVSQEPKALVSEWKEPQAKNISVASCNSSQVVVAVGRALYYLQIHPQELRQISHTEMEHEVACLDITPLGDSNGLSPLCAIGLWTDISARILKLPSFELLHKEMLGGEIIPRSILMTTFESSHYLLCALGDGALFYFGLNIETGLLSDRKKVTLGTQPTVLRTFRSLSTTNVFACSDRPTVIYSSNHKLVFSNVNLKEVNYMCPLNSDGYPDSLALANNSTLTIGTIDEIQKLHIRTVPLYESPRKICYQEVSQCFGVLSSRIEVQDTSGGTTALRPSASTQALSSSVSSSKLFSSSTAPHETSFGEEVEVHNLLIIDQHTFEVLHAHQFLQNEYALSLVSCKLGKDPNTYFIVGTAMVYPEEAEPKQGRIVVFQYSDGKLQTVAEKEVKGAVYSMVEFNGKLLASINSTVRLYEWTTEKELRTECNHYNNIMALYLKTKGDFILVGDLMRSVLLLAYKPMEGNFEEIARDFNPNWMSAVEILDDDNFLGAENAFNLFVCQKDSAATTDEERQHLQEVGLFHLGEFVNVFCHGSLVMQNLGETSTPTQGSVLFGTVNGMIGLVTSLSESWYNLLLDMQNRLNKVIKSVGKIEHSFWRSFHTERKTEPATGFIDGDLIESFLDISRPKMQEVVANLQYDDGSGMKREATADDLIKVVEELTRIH
Chain of GSPT1 (P15170 whole entry, the tested form may be a part): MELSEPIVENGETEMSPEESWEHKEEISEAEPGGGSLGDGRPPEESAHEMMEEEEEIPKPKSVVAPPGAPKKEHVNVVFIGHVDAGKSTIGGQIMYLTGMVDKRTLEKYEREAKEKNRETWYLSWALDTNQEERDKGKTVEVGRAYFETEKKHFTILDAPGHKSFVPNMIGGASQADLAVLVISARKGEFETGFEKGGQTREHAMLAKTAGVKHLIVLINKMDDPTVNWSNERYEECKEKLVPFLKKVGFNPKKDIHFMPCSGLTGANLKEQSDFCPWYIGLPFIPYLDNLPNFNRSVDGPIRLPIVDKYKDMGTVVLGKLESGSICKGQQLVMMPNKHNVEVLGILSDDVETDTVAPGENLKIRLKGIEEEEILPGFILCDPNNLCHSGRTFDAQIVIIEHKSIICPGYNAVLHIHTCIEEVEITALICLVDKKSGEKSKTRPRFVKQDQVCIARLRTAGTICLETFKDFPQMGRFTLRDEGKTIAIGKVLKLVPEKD
Chain of GSPT1 (Q96SW2 whole entry, the tested form may be a part): as the sequence (Q96SW2 whole entry) above
Chain of GSPT1 (Q16531 whole entry partner, the tested form may be a part): as the sequence (Q16531 whole entry partner) above

As for `COc1c(COC(=O)Nc2ccc(Oc3cccc(F)c3)cc2C)ccc2c1C(=O)N(C1CCC(=O)NC1=O)C2` (stereo not drawn) [Example 39, [2-(2,6-dioxopiperidin-3-yl)-4-methoxy-3-oxo-2,3-dihydro-1H-isoindol-5-yl]methyl N-[4-(3-fluorophenoxy)-2-methylphenyl]carbamate], in assay [1], the DC50 is over 14000 nM and the Dmax came to 20%. Also, in assay [2], half-maximal degradation (DC50) was put at 103 nM, the Dmax was 108% and the “Ratio of GSPT1 DC50/Cyclin E1 DC50” value is listed as over 136. Moreover, in assay [3], the pIC50 is 6.90 and the Emax came to 111%.
Regarding `CC(C)Oc1c(COC(=O)Nc2ccc(Oc3ccc(F)c(F)c3)cc2)ccc2c1C(=O)N(C1CCC(=O)NC1=O)C2` (stereo not drawn) [Example 56, [2-(2,6-dioxopiperidin-3-yl)-3-oxo-4-(propan-2-yloxy)-2,3-dihydro-1H-isoindol-5-yl]methyl N-[4-(3,4-difluorophenoxy)phenyl]carbamate], in assay [1], the DC50 is over 14000 nM and the Dmax was 19%. Moreover, in assay [2], it took 159 nM to reach half-maximal degradation (DC50), the Dmax amounted to 106% and the “Ratio of GSPT1 DC50/Cyclin E1 DC50” value is on record as over 88. For the same compound, in assay [3], the pIC50 is 6.95 and the Emax stood at 127%.
On to `COc1c(COC(=O)Nc2ccc(Oc3cc(F)c(F)cc3C)cc2C)ccc2c1C(=O)N(C1CCC(=O)NC1=O)C2` (stereo not drawn) [Example 74, [2-(2,6-dioxopiperidin-3-yl)-4-methoxy-3-oxo-2,3-dihydro-1H-isoindol-5-yl]methyl N-[4-(4,5-difluoro-2-methylphenoxy)-2-methylphenyl]carbamate], for which, in assay [1], the DC50 is over 14000 nM and the Dmax is 37%. In addition, in assay [2], the 50% degradation concentration (DC50) came out at 222 nM, the Dmax is 111% and the “Ratio of GSPT1 DC50/Cyclin E1 DC50” value is over 63. Further, in assay [3], the pIC50 was 7.28 and the Emax turned out to be 116%.
Turning to `O=C1CCC(N2Cc3ccc(COC(=O)Nc4ccc(Oc5ccccc5Cl)cc4)c(OC4CCOCC4)c3C2=O)C(=O)N1` (stereo not drawn) [Example 131, [2-(2,6-dioxopiperidin-3-yl)-4-(oxan-4-yloxy)-3-oxo-2,3-dihydro-1H-isoindol-5-yl]methyl N-[4-(2-chlorophenoxy)phenyl]carbamate], in assay [1], the DC50 is over 14000 nM and the Dmax turned out to be 0%. In addition, in assay [2], the DC50 was determined as 31 nM, the Dmax turned out to be 102% and the “Ratio of GSPT1 DC50/Cyclin E1 DC50” value is over 450. Further, in assay [3], the pIC50 was 7.55 and the Emax was 129%.
For `CCOc1c(COC(=O)Nc2ccc(Oc3cccc(Cl)c3)cc2)ccc2c1C(=O)N(C1CCC(=O)NC1=O)C2` (stereo not drawn) [Example 54, [2-(2,6-dioxopiperidin-3-yl)-4-ethoxy-3-oxo-2,3-dihydro-1H-isoindol-5-yl]methyl N-[4-(3-chlorophenoxy)phenyl]carbamate], in assay [1], the half-maximal degradation concentration (DC50) was over 14000 nM and the Dmax is 22%. In assay [2], the 50% degradation concentration (DC50) amounted to 58 nM, the Dmax stood at 116% and the “Ratio of GSPT1 DC50/Cyclin E1 DC50” value is given as over 241. Moreover, in assay [3], the pIC50 was 6.20 and the Emax was determined as 102%.
With `COc1c(COC(=O)Nc2ccc(Oc3cccc(F)c3)cc2)ccc2c1C(=O)N(C1CCC(=O)NC1=O)C2` (stereo not drawn) [Example 4, [2-(2,6-dioxopiperidin-3-yl)-4-methoxy-3-oxo-2,3-dihydro-1H-isoindol-5-yl]methyl N-[4-(3-fluorophenoxy)phenyl]carbamate], in assay [1], the DC50 is over 14000 nM and the Dmax stood at 35%. In assay [2], the DC50 is 39 nM, the Dmax was 108% and the “Ratio of GSPT1 DC50/Cyclin E1 DC50” value is recorded as over 355. Further, in assay [3], the pIC50 was 7.05 and the Emax came to 109%.
For `COc1c(COC(=O)Nc2ccc(Cc3ccc(F)c(Cl)c3)cc2)ccc2c1C(=O)N(C1CCC(=O)NC1=O)C2` (stereo not drawn) [Example 21, [2-(2,6-dioxopiperidin-3-yl)-4-methoxy-3-oxo-2,3-dihydro-1H-isoindol-5-yl]methyl N-{4-[(3-chloro-4-fluorophenyl)methyl]phenyl}carbamate], in assay [1], the DC50 was over 14000 nM and the Dmax amounted to 14%. Besides, in assay [2], the DC50 stood at 40 nM, the Dmax amounted to 101% and the “Ratio of GSPT1 DC50/Cyclin E1 DC50” value is listed as over 353. In addition, in assay [3], the pIC50 is 6.09 and the Emax was 92%.
In the case of `COCCOc1c(COC(=O)Nc2ccc(Oc3ccc(F)c(F)c3)cc2)ccc2c1C(=O)N(C1CCC(=O)NC1=O)C2` (stereo not drawn) [Example 168, [2-(2,6-dioxopiperidin-3-yl)-4-(2-methoxyethoxy)-3-oxo-2,3-dihydro-1H-isoindol-5-yl]methyl N-[4-(3,4-difluorophenoxy)phenyl]carbamate], in assay [1], the half-maximal degradation concentration (DC50) was over 14000 nM and the Dmax turned out to be 33%. Also, in assay [2], the DC50 worked out at 62 nM, the Dmax was 110% and the “Ratio of GSPT1 DC50/Cyclin E1 DC50” value is over 226. In assay [3], the pIC50 was 7.72 and the Emax turned out to be 118%.
In the case of `COc1c(COC(=O)Nc2ccc(Oc3ccccc3C(F)F)cc2)ccc2c1C(=O)N(C1CCC(=O)NC1=O)C2` (stereo not drawn) [Example 85, [2-(2,6-dioxopiperidin-3-yl)-4-methoxy-3-oxo-2,3-dihydro-1H-isoindol-5-yl]methyl N-{4-[2-(difluoromethyl)phenoxy]phenyl}carbamate], in assay [1], the 50% degradation concentration (DC50) was over 14000 nM and the Dmax turned out to be 35%. Moreover, in assay [2], half-maximal degradation (DC50) was put at 181 nM, the Dmax stood at 105% and the “Ratio of GSPT1 DC50/Cyclin E1 DC50” value was over 77. Further, in assay [3], the pIC50 was 6.93 and the Emax turned out to be 98%.
Take `COc1c(COC(=O)Nc2ccc(Cc3cccc(F)c3)cc2)ccc2c1C(=O)N(C1CCC(=O)NC1=O)C2` (stereo not drawn) [Example 6, [2-(2,6-dioxopiperidin-3-yl)-4-methoxy-3-oxo-2,3-dihydro-1H-isoindol-5-yl]methyl N-{4-[(3-fluorophenyl)methyl]phenyl}carbamate]: in assay [1], the DC50 was over 14000 nM and the Dmax came to 6%. In assay [2], the DC50 was 62 nM, the Dmax turned out to be 94% and the “Ratio of GSPT1 DC50/Cyclin E1 DC50” value is over 226. For the same compound, in assay [3], the pIC50 was 6.83 and the Emax was 117%.
As to `COc1c(COC(=O)Nc2ccc(Cc3ccc(F)c(F)c3)cc2C)ccc2c1C(=O)N(C1CCC(=O)NC1=O)C2` (stereo not drawn) [Example 18, [2-(2,6-dioxopiperidin-3-yl)-4-methoxy-3-oxo-2,3-dihydro-1H-isoindol-5-yl]methyl N-{4-[(3,4-difluorophenyl)methyl]-2-methylphenyl}carbamate], in assay [1], the DC50 is over 14000 nM and the Dmax was found to be 13%. For the same compound, in assay [2], the 50% degradation concentration (DC50) was found to be 89 nM, the Dmax is 100% and the “Ratio of GSPT1 DC50/Cyclin E1 DC50” value is over 157. Besides, in assay [3], the negative logarithm of the IC50 (pIC50) was 7.07 and the Emax is 110%.
`O=C1CCC(N2Cc3ccc(COC(=O)Nc4ccc(Oc5ccccc5)cc4)c(Oc4ccccc4)c3C2=O)C(=O)N1` (stereo not drawn) [Example 62, [2-(2,6-dioxopiperidin-3-yl)-3-oxo-4-phenoxy-2,3-dihydro-1H-isoindol-5-yl]methyl N-(4-phenoxyphenyl)carbamate]: in assay [1], the DC50 is over 14000 nM and the Dmax worked out at 33%. Besides, in assay [2], it took 98 nM to reach half-maximal degradation (DC50), the Dmax is 102% and the “Ratio of GSPT1 DC50/Cyclin E1 DC50” value is on record as over 143. For the same compound, in assay [3], the pIC50 was 6.17 and the Emax came to 94%.

What is called DC50 is the midpoint of the concentration-degradation curve. The low end stands for degradation at low concentration, the high end for degradation only at high concentration. Broadly, the Dmax is the greatest extent of degradation seen. The term pIC50 denotes −log10 of the IC50, conventionally taken in molar units. Lower therefore signals a high IC50.
